According to patent US12648923B2, “Dietary butyrate and its uses” (SOCIETE DES PRODUITS NESTLE S.A., priority 2019, dated 2026):

Target: T1, porcine pancreatic lipase (from pancreatin) (Sus scrofa, UniProt P00591)
T1 construct: pancreatin (Porcine, USP×8, P7585); purchased Sigma-Aldrich P7585; host or cells: porcine pancreas extract (pancreatin)
T1 sequence (P00591 1-450): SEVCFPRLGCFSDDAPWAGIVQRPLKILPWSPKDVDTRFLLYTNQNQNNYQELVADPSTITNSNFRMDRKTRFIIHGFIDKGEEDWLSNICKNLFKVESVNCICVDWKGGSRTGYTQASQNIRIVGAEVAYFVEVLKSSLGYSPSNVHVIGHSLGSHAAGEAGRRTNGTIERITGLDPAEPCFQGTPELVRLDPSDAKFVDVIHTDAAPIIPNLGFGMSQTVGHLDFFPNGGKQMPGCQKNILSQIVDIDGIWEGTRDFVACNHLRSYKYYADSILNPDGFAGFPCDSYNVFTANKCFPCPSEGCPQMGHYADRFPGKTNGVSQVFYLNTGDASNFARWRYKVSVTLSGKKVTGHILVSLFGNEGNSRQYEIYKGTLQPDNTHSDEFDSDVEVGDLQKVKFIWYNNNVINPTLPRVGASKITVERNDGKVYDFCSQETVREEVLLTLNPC
T1 sequence (P02703 23-112 partner): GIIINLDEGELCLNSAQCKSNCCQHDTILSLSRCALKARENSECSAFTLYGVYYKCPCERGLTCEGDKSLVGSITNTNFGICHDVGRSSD
Assay: In vitro digestion in simulated intestinal fluid (SIF), pH-stat
Assay type: in vitro ADME
Details: SIF alone; emulsion with 200 mg fat; pH 6.8, 37° C.
Procedure: 10 wt % oil in water emulsions stabilised by 0.3 wt % polyoxyethylene sorbitan mono-oleate (Tween® 80) were prepared by mixing the Tween 80 into the oil phase at 40° C., then mixing with the water phase using a magnetic stirrer. An emulsion was then created using a Hielscher UP 400S ultrasonic probe homogeniser equipped with a 5 mm diameter rod-like probe by applying 100% amplitude at 100% cycle for 2 minutes whilst the sample was cooled using ice water.
The lipid emulsion (2 mL) containing 200 mg of fat was subjected to gastrointestinal in vitro lipolysis. […]
The intestinal digestion step was performed in the pH stat where the pH was kept constant at 6.8 by addition of NaOH (0.05 M). […] During the intestinal phase of digestion, the kinetics of digestion were followed using a pH-stat (TIM856, Radiometer) technique and expressed as titratable acid (rather than fatty acid) that was calculated by the equation: TA=VNaOH×0:05×1000 […]
Since the digestion of dietary lipids involves lipases of both gastric and intestinal origin, lipid digestibility was assessed using two digestion models i) simulated intestinal fluid (SIF) with porcine pancreatic lipase (PPL) and ii) sequential digestion in simulated gastric fluid (SGF) with rabbit gastric lipase (RGL) followed by simulated intestinal fluid (SIF) with porcine pancreatic lipase (PPL).

## CCCC(=O)OCC(COC(=O)CCC)OC(=O)CCC [tributyrin]
  initial rate of lipolysis: 223 ± 59 µmol/min
